How the values were obtained:
rat [1] = conditions: Carcinogenicity, fischer, Oral, Water, dose end: 104 week, group: systemic
mouse [2] = conditions: Carcinogenicity; other; Injection; Intraperitoneal; dose end: 50 week; group: systemic; systemic / pathology microscopic / lung / adenoma + systemic / pathology microscopic / lymph node / leukemia granulocytic + systemic / …
rat [3] = conditions: Carcinogenicity, fischer, Oral, Feed, dose end: 103 week, group: systemic
mouse [4] = conditions: Multigenerational reproductive toxicity study, cd1, Oral, Feed, dose end: 2 generation
rat [5] = conditions: Subchronic oral toxicity in rodents, fischer, Feed, dose end: 13 week, group: systemic
mouse [6] = conditions: Carcinogenicity, b6c3f1, Oral, Feed, dose end: 103 week, group: systemic
mouse [7] = conditions: Subchronic oral toxicity in rodents, b6c3f1, Feed, dose end: 13 week, group: systemic
rat [8] = conditions: Sub-acute repeat dose toxicity, fischer, Oral, Feed, dose end: 14 day, group: systemic
rabbit = conditions: Prenatal developmental toxicity study, new zealand white, Oral, Gavage/Intubation, dose end: 19 GD, group: maternal
rat [9] = conditions: Prenatal developmental toxicity study, sprague dawley, Oral, Gavage/Intubation, dose end: 15 GD
mouse [10] = conditions: Subchronic oral toxicity in rodents, b6c3f1, Gavage/Intubation, dose end: 20 week, group: systemic, systemic / pathology microscopic / liver / hyperplasia + systemic / pathology microscopic / stomach / hyperkeratosis + systemic / pathology …
mouse [11] = conditions: Carcinogenicity; b6c3f1; Oral; Gavage/Intubation; dose end: 2 year; group: systemic; systemic / pathology microscopic / stomach / carcinoma + systemic / pathology microscopic / stomach / papilloma + systemic / in life …
rat [12] = conditions: Combined chronic toxicity/carcinogenicity; sprague dawley; Oral; Gavage/Intubation; dose end: 52 week; group: systemic; systemic / pathology microscopic / stomach / [other] + systemic / pathology microscopic / stomach / carcinoma + systemic / pathology …
rat [13] = conditions: Carcinogenicity, fischer, Oral, Gavage/Intubation, dose end: 2 year, group: systemic
rat [14] = conditions: Subchronic oral toxicity in rodents, fischer, Gavage/Intubation, dose end: 24 week, group: systemic
rat [15] = conditions: Subchronic oral toxicity in rodents, fischer, Gavage/Intubation, dose end: 13 week, group: systemic
rat [16] = conditions: Multigenerational reproductive toxicity study, sprague dawley, Oral, Gavage/Intubation, dose end: 2 generation
mouse [17] = conditions: Combined chronic toxicity/carcinogenicity, b6c3f1, Oral, Gavage/Intubation, dose end: 104 week, group: systemic
rat [18] = conditions: Combined chronic toxicity/carcinogenicity, fischer, Oral, Gavage/Intubation, dose end: 105 week, group: systemic
mouse [19] = conditions: Subchronic oral toxicity in rodents, b6c3f1, Gavage/Intubation, dose end: 13 week, group: systemic
rat [20] = conditions: Fertility (Segment I), sprague dawley, Oral, Gavage/Intubation, dose end: 0 day
[21] = systemic / in life observation / body weight / body weight gain + systemic / in life observation / water consumption / water consumption + …
[22] = systemic / in life observation / water consumption / water consumption
[23] = systemic / pathology microscopic / kidney / nephropathy
[24] = systemic / pathology microscopic / kidney / nephropathy + systemic / pathology microscopic / kidney / hyperplasia + systemic / pathology …
[25] = group: offspring, systemic / in life observation / body weight / offspring (pup) weight
[26] = group: parental, systemic / in life observation / body weight / body weight + systemic / organ weight / brain / relative to body weight + systemic / organ …
[27] = group: reproductive, reproductive / offspring survival early / birth index / birth index + reproductive / offspring survival early / live fetuses / live fetuses
[28] = systemic / organ weight / kidney / relative to body weight + systemic / organ weight / liver / relative to body weight
[29] = systemic / in life observation / body weight / body weight + systemic / pathology microscopic / thyroid gland / hyperplasia
[30] = systemic / in life observation / body weight / body weight + systemic / pathology microscopic / liver / mineralization + systemic / …
[31] = systemic / in life observation / food consumption / food consumption
[32] = systemic / in life observation / food consumption / food consumption + systemic / in life observation / body weight / body weight
[33] = reproductive / offspring survival early / offspring survival early other / NOS
[34] = group: developmental, developmental / developmental malformation / ureter / distended
[35] = group: maternal, systemic / in life observation / clinical signs / general pallor + systemic / in life observation / clinical signs / pale and/or opaque eyes…
[36] = systemic / pathology microscopic / blood / leukemia + systemic / pathology microscopic / stomach / carcinoma + systemic / pathology …
[37] = systemic / pathology microscopic / stomach / carcinoma + systemic / pathology microscopic / stomach / papilloma + systemic / pathology …
[38] = systemic / in life observation / body weight / body weight gain + systemic / in life observation / mortality / mortality + systemic / …
[39] = systemic / in life observation / body weight / body weight + systemic / pathology gross / sperm measure / sperm motility
[40] = systemic / in life observation / body weight / body weight + systemic / pathology microscopic / pituitary gland / hyperplasia + systemic / …
[41] = group: parental, systemic / in life observation / body weight / body weight + systemic / in life observation / body weight / dam weight + systemic / in life …
[42] = group: parental, systemic / in life observation / water consumption / water consumption + systemic / pathology gross / sperm measure / sperm morphology
[43] = group: reproductive, reproductive / offspring survival early / live fetuses / live fetuses
[44] = group: reproductive, reproductive / offspring survival early / live fetuses / live fetuses + reproductive / reproductive performance / gestational length / …
[45] = systemic / pathology microscopic / liver / eosinophilic focus + systemic / pathology microscopic / liver / clear cell focus
[46] = systemic / pathology microscopic / liver / eosinophilic focus + systemic / pathology microscopic / liver / clear cell focus + systemic / …
[47] = systemic / pathology microscopic / kidney / mineralization + systemic / pathology microscopic / kidney / nephropathy
[48] = systemic / clinical chemistry / thyroxine (t4) / thyroxine (t4), total + systemic / hematology / reticulocyte / reticulocyte + systemic / …
[49] = group: maternal, reproductive / reproductive performance / fertility / fertility
[50] = group: parental, systemic / in life observation / body weight / body weight gain + systemic / in life observation / food consumption / food consumption + …
[51] = group: parental, systemic / pathology microscopic / testes / delayed spermiation, retained spermatids + systemic / pathology microscopic / testes / immature …

O=c1[nH]cc(F)c(=O)[nH]1 [5-Fluorouracil]
LOAEL (rat [1]; [21]): > 7.42 mg/kg/day | NOAEL (rat [1]; [21]): ≥ 7.42 mg/kg/day | LEL (rat [1]; [22]): 3.85 mg/kg/day | NEL (rat [1]; [22]): < 3.85 mg/kg/day | LEL (mouse [2]): 30 mg/kg/day | LOAEL (mouse [2]): > 30 mg/kg/day | NEL (mouse [2]): < 30 mg/kg/day | NOAEL (mouse [2]): ≥ 30 mg/kg/day

CC(=O)Nc1ccc(O)cc1 [Acetaminophen]
LOAEL (rat [3]; [23]): 30 mg/kg/day | NOAEL (rat [3]; [23]): < 30 mg/kg/day | LEL (rat [3]; [24]): 30 mg/kg/day | NEL (rat [3]; [24]): < 30 mg/kg/day | LEL (mouse [4]; [25]): 357 mg/kg/day | LOAEL (mouse [4]; [25]): > 1430 mg/kg/day | NEL (mouse [4]; [25]): < 357 mg/kg/day | NOAEL (mouse [4]; [25]): ≥ 1430 mg/kg/day | LEL (mouse [4]; [26]): 1430 mg/kg/day | LOAEL (mouse [4]; [26]): > 1430 mg/kg/day | NEL (mouse [4]; [26]): 715 mg/kg/day | NOAEL (mouse [4]; [26]): ≥ 1430 mg/kg/day | NEL (mouse [4]; group: reproductive, reproductive / offspring survival early / birth index / birth index): 715 mg/kg/day | LEL (mouse [4]; [27]): 1430 mg/kg/day | LOAEL (mouse [4]; [27]): > 1430 mg/kg/day | NOAEL (mouse [4]; [27]): ≥ 1430 mg/kg/day | NOAEL (rat [5]; systemic / in life observation / body weight / body weight + systemic / in life observation / clinical signs / reduced body size + systemic…): 310 mg/kg/day | LOAEL (rat [5]; systemic / in life observation / body weight / body weight + systemic / pathology microscopic / liver / cytomegaly + systemic / pathology …): 625 mg/kg/day | LEL (rat [5]; [28]): 40 mg/kg/day | NEL (rat [5]; [28]): < 40 mg/kg/day | LOAEL (mouse [6]; systemic / in life observation / body weight / body weight): 1000 mg/kg/day | LEL (mouse [6]; [29]): 90 mg/kg/day | NEL (mouse [6]; [29]): < 90 mg/kg/day | NOAEL (mouse [6]; [29]): 450 mg/kg/day | LOAEL (mouse [7]; [30]): 1880 mg/kg/day | NEL (mouse [7]; [30]): 480 mg/kg/day | NOAEL (mouse [7]; [30]): 930 mg/kg/day | LEL (mouse [7]; systemic / pathology microscopic / liver / cytomegaly + systemic / pathology microscopic / liver / karyomegaly + systemic / pathology …): 930 mg/kg/day | NEL (rat [8]; [31]): 310 mg/kg/day | NOAEL (rat [8]; [31]): 310 mg/kg/day | LEL (rat [8]; [32]): 625 mg/kg/day | LOAEL (rat [8]; [32]): 625 mg/kg/day

O=C1c2ccccc2C(=O)C1C(=O)C(c1ccccc1)c1ccc(Cl)cc1 (stereo not drawn) [Chlorophacinone]
LOAEL (rabbit; [33]): 0.025 mg/kg/day | NOAEL (rabbit; [33]): 0.01 mg/kg/day | LEL (rabbit; reproductive / offspring survival early / offspring survival early other / NOS + systemic / in life observation / clinical signs / red or …): 0.025 mg/kg/day | NEL (rabbit; systemic / in life observation / clinical signs / red or crusty deposits around eyes, ears, nose, or mouth + systemic / in life observation…): 0.01 mg/kg/day | LEL (rat [9]; [34]): 0.0125 mg/kg/day | LOAEL (rat [9]; [34]): 0.0125 mg/kg/day | NEL (rat [9]; [34]): < 0.0125 mg/kg/day | NOAEL (rat [9]; [34]): < 0.0125 mg/kg/day | LEL (rat [9]; [35]): 0.1 mg/kg/day | LOAEL (rat [9]; [35]): 0.1 mg/kg/day | NEL (rat [9]; [35]): 0.05 mg/kg/day | NOAEL (rat [9]; [35]): 0.05 mg/kg/day

c1ccc(C2CO2)cc1 (stereo not drawn) [Styrene oxide]
LEL (mouse [10]): 900 mg/kg/day | LOAEL (mouse [10]): > 900 mg/kg/day | NEL (mouse [10]): 600 mg/kg/day | NOAEL (mouse [10]): ≥ 900 mg/kg/day | LEL (mouse [11]): 375 mg/kg/day | LOAEL (mouse [11]): > 750 mg/kg/day | NEL (mouse [11]): < 375 mg/kg/day | NOAEL (mouse [11]): ≥ 750 mg/kg/day | LEL (rat [12]): 50 mg/kg/day | LOAEL (rat [12]): > 250 mg/kg/day | NEL (rat [12]): < 50 mg/kg/day | NOAEL (rat [12]): ≥ 250 mg/kg/day | LOAEL (rat [13]; [36]): > 550 mg/kg/day | NOAEL (rat [13]; [36]): ≥ 550 mg/kg/day | LEL (rat [13]; [37]): 275 mg/kg/day | NEL (rat [13]; [37]): < 275 mg/kg/day | LOAEL (rat [14]; [38]): > 3000 mg/kg/day | NEL (rat [14]; [38]): 360 mg/kg/day | NOAEL (rat [14]; [38]): ≥ 3000 mg/kg/day | LEL (rat [14]; systemic / pathology microscopic / liver / hyperplasia): 750 mg/kg/day

O=C(O)c1cc(N=Nc2ccc(S(=O)(=O)Nc3ccccn3)cc2)ccc1O [Sulfasalazine]
LEL (rat [15]; [39]): 84 mg/kg/day | NEL (rat [15]; [39]): < 84 mg/kg/day | LOAEL (rat [15]; [40]): 338 mg/kg/day | NOAEL (rat [15]; [40]): 169 mg/kg/day | LEL (rat [16]; [25]): 100 mg/kg/day | LOAEL (rat [16]; [25]): > 400 mg/kg/day | NEL (rat [16]; [25]): < 100 mg/kg/day | NOAEL (rat [16]; [25]): ≥ 400 mg/kg/day | LOAEL (rat [16]; [41]): > 400 mg/kg/day | NOAEL (rat [16]; [41]): ≥ 400 mg/kg/day | LEL (rat [16]; [42]): 100 mg/kg/day | NEL (rat [16]; [42]): < 100 mg/kg/day | LEL (rat [16]; [43]): 100 mg/kg/day | NEL (rat [16]; [43]): < 100 mg/kg/day | LOAEL (rat [16]; [44]): > 400 mg/kg/day | NOAEL (rat [16]; [44]): ≥ 400 mg/kg/day | LOAEL (mouse [17]; [45]): 675 mg/kg/day | NOAEL (mouse [17]; [45]): < 675 mg/kg/day | LEL (mouse [17]; [46]): 675 mg/kg/day | NEL (mouse [17]; [46]): < 675 mg/kg/day | NOAEL (rat [18]; systemic / organ weight / kidney / absolute + systemic / pathology microscopic / kidney / hyperplasia): 168 mg/kg/day | LOAEL (rat [18]; systemic / organ weight / kidney / absolute + systemic / pathology microscopic / kidney / hyperplasia + systemic / in life observation / …): 338 mg/kg/day | LEL (rat [18]; [47]): 84 mg/kg/day | NEL (rat [18]; [47]): < 84 mg/kg/day | LEL (mouse [19]; [48]): 675 mg/kg/day | NEL (mouse [19]; [48]): < 675 mg/kg/day | LOAEL (mouse [19]; systemic / pathology microscopic / liver / hypertrophy): 1350 mg/kg/day | NOAEL (mouse [19]; systemic / pathology microscopic / liver / hypertrophy + systemic / clinical chemistry / alanine aminotransferase (alt/sgpt) / alanine …): 675 mg/kg/day | LEL (rat [20]; [49]): 600 mg/kg/day | LOAEL (rat [20]; [49]): > 600 mg/kg/day | NEL (rat [20]; [49]): 300 mg/kg/day | NOAEL (rat [20]; [49]): ≥ 600 mg/kg/day | LOAEL (rat [20]; [50]): > 600 mg/kg/day | NOAEL (rat [20]; [50]): ≥ 600 mg/kg/day | LEL (rat [20]; [51]): 150 mg/kg/day | NEL (rat [20]; [51]): < 150 mg/kg/day
